Measurements: patent US20220049238A1, “Synthetic Matrix Assembled and Rapidly Templated Spheroids, Organoids and 3D Cell Cultures” (Rutgers, The State University of New Jersey, priority 2020, published 2022)

Tested on: IPSC-NSC
Test: Neuronal differentiation of hybrid spheroids with DAPT loaded on nanosheets (qPCR, immunostaining)
Assay type: cell-based
Experimental: Lastly, because Mn^2+ ions are MRI active, they could be used for MRI monitoring of degradation and drug release. A 7-day degradation study was performed, and it was shown that the Mn2+ ions generated correlated with the amount of the fluorescent model drug that was released, showing that the drug was released through the degradation of the scaffold nanosheets. After confirming the drug loading and degradation properties of the scaffold nanosheets and the hybrid spheroids, varying concentrations of DAPT were then loaded on the surface of the nanosheets at […] of from 0 to 50 μM. The spheres were cultured for 7 days and then the neuronal differentiation was analyzed using both qPCR and immunostaining.

[1] = day 7, loaded concentration of 5 and 10 μM

C[C@H](NC(=O)Cc1cc(F)cc(F)c1)C(=O)N[C@H](C(=O)OC(C)(C)C)c1ccccc1 [DAPT, N-[N-(3,5-difluorophenacetyl)-L-alanyl]-S-phenylglycine t-butyl ester]
cell death (50 μM condition): significant cell death | neurogenesis (50 μM condition): impaired neurogenesis | Tuj1 positive cells by immunostaining [1]: significant increase in Tuj1 positive cells | axon length [1]: longer axons | increase in mRNA expression of Tuj1 [1]: ca. 1.8 fold | mature phenotype markers Map2 and NeuN (qPCR and immunostaining) [1]: increase in mature phenotype markers
